IC50 data for ten compounds are collected here from ChEMBL document CHEMBL1126473, “Benzolactams as non-peptide cholecystokinin receptor ligands” (Bioorg Med Chem Lett, 1993).

Molecular target in one assay: not listed separately
Description: Ability to inhibit the binding of [125I]CCK-8 to Cholecystokinin type B receptor in guinea pig cortex.
As a reminder, the IC50 is the concentration that gives 50% inhibition. Low values mean greater potency, high ones weaker potency. `O=C(Nc1ccc(Cl)cc1)NC1N=C(c2ccccc2)c2ccccc2N(CC(=O)N2CCCC2)C1=O` (configuration not stated) gave an IC50 of 0.28 nM. Same read-out and setting: the same measure for `CCOC(=O)CN1C(=O)C(NC(=O)Nc2ccc(Cl)cc2)N=C(c2ccccc2)c2ccccc21` (configuration not stated): 1 nM.

Molecular target in a further assay: not listed separately
The experiment in a line: Ability to inhibit the binding of [125I]-gastrin to gastric glands in guinea pig.
For `O=C(Nc1ccc(Cl)cc1)NC1N=C(c2ccccc2)c2ccccc2N(CC(=O)N2CCCC2)C1=O` (configuration not stated), the IC50 stood at 0.5 nM. In turn, `CCOC(=O)CN1C(=O)C(NC(=O)Nc2ccc(Cl)cc2)N=C(c2ccccc2)c2ccccc21` (configuration not stated) came in with an IC50 of 3.3 nM.

A further assay addresses T1, Cholecystokinin receptor type A (Rattus norvegicus, UniProt P30551).
T1 sequence (P30551 whole entry): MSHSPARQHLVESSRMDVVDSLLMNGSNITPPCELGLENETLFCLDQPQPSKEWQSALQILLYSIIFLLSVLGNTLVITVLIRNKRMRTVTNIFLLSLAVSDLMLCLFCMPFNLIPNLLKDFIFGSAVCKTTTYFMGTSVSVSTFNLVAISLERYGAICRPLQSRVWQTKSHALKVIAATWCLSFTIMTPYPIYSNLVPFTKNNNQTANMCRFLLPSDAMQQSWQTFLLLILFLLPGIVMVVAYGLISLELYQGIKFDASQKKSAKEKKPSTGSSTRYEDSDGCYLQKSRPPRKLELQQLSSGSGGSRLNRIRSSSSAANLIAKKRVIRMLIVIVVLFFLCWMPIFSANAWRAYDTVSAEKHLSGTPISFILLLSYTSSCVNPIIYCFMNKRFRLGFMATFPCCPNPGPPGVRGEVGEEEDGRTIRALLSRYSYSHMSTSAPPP
The experiment in a line: Ability to inhibit the binding of [125I]CCK-8 to Cholecystokinin type A receptor in rat pancreas.
As for `Cc1cccc(NC(=O)NC2CCc3ccccc3N(CC(=O)OC(C)(C)C)C2=O)c1` (configuration not stated), the IC50 is 140 nM. `COc1cccc(NC(=O)N[C@H]2CCc3ccccc3N(CC(=O)N3CCCC3)C2=O)c1` registered an IC50 of 335 nM. This IC50 is about 2.4-fold higher than that of the compound before. Consider `CC(C)(C)OC(=O)CN1C(=O)C(NC(=O)c2ccc3ccccc3c2)CCc2ccccc21` (configuration not stated), for which the half-inhibitory concentration (IC50) worked out at 7.5 nM.

On to `COc1cccc(NC(=O)NC2CCc3ccccc3N(CC(=O)OC(C)(C)C)C2=O)c1` (configuration not stated), for which the IC50 came to 62 nM. Compared with the last compound, the IC50 is about 8.3-fold higher. The compound `COc1cccc(NC(=O)N[C@@H]2CCc3ccccc3N(CC(=O)N3CCCC3)C2=O)c1` returned an IC50 of 28 nM. In turn, `Cc1cccc(NC(=O)NC2CCc3ccccc3N(CC(=O)N3CCCC3)C2=O)c1` (configuration not stated) showed a half-maximal inhibitory concentration (IC50) of 130 nM.

For `Cc1cccc(NC(=O)N[C@H]2CCc3ccccc3N(CC(=O)N3CCCC3)C2=O)c1`, the concentration for half-maximal inhibition (IC50) came out at 1000 nM. For the compound `Cc1cccc(NC(=O)N[C@@H]2CCc3ccccc3N(CC(=O)N3CCCC3)C2=O)c1`, the IC50 is 30 nM.
